The target of this experiment is Cholinesterase (Homo sapiens, UniProt P06276). The experiment can be described thus: Inhibition of human BChE after 30 mins by microplate reader method.

Bounds are passed on as bounds.

In BindingDB's records for doi:10.1021/jm201482p (University of Nebraska Medical Center, 2012) one finds IC50 data, which are given here for one compound.

For orientation: IC50 means the midpoint of a concentration-inhibition curve.

Chain of Cholinesterase (P06276 whole entry): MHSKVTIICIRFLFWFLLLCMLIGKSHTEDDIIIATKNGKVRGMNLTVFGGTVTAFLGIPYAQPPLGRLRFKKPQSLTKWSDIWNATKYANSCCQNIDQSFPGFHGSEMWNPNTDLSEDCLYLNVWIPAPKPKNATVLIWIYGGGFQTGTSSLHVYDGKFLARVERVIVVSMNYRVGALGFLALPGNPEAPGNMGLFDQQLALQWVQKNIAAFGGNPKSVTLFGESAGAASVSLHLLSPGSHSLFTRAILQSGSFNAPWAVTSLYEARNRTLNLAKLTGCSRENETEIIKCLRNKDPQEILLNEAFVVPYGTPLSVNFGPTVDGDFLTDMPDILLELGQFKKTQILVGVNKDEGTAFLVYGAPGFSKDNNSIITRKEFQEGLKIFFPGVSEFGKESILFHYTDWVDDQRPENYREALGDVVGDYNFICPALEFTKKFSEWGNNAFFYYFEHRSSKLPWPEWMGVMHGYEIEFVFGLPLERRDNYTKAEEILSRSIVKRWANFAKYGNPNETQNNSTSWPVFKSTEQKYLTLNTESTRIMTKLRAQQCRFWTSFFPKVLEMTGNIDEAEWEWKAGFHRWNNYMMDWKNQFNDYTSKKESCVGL

As to `CC(C)(C)c1cc(C(C)(C)C)c2c(c1F)COP(=O)(OC[C@H]1O[C@@H](n3cc(I)c(=O)[nH]c3=O)C[C@@H]1O)O2` (stereo partly specified), the 50% inhibitory concentration (IC50) is above 60 mM.
